Experimental findings from article PMC11093982, “Structural and mechanistic insights into Quinolone Synthase to address its functional promiscuity” (Communications Biology, 2024) are described below.

Each structure is given as a SMILES string. Read-outs that look alike come from different tables or passages of the source.

The target in this assay is AmQNS (quinolone synthase) (Aegle marmelos, UniProt M1HE54). Briefly: Surface plasmon resonance (SPR) AmQNS-substrate interaction studies. It counts as binding. Particulars: for association rate constant (kon): SPR association rate; for dissociation rate constant (koff): SPR dissociation rate. From the text: ProteOn XPR array system[21] and ‘GLM’ sensor chip was used for the SPR interaction studies. […] Here, amine coupling works, where the amine groups present in the AmQNS covalently bind to the chemically activated carboxyl groups of the dextran molecules. Channel L3 and L4 were used for immobilization of protein while L2 was used as reference. The extent of non-specific interactions was eliminated or reduced by optimizing the buffer conditions. […] N-methylanthraniloyl-CoA was purchased from TransMIT (Plant MetaChem, www.plantmetachem.com), whereas all other substrates were purchased from Sigma-Aldrich (www.sigmaaldrich.com).
Following AmQNS immobilization and its stability screening, all binding studies were done at 30 °C. The SPR-based system measures the changes in refractive index to investigate the direct interaction between AmQNS and different CoA substrates. […] In our experiments, AmQNS was captured on the surface of the GLM sensor chip and used to screen the preferred substrates (acyl-CoA’s) in the presence and absence of malonyl-CoA. […] The sensogram was prepared by processing the data (after subtraction of L2 responses (reference channel). Baseline drift due to the bulk refractive index change, non-specific binding, matrix effects and injection noise were also corrected using the reference spots. Further, the responses obtained from the AmQNS-small molecular interactions at different concentrations were fitted using the Langmuir 1:1 biomolecular interaction model using the ProteOn Manager software version 3.1.0.6 (Bio-Rad, USA). Equilibrium dissociation constants (KD) were calculated from the ratio of the association and dissociation rates.

The mark [1] stands for this setting: AmQNS immobilized on GLM chip, 30 °C, Langmuir 1:1 model.
The mark [2] stands for this setting: SPR, AmQNS immobilized on GLM chip, 30 °C, Langmuir 1:1 model, read-out: KD (KD= kd /ka).
Where [3] appears, read: SPR, AmQNS immobilized on GLM chip, 30 °C, in presence of malonyl-CoA, Langmuir 1:1 model, read-out: KD.

Sequence of AmQNS (quinolone synthase) (M1HE54 entry or part of it): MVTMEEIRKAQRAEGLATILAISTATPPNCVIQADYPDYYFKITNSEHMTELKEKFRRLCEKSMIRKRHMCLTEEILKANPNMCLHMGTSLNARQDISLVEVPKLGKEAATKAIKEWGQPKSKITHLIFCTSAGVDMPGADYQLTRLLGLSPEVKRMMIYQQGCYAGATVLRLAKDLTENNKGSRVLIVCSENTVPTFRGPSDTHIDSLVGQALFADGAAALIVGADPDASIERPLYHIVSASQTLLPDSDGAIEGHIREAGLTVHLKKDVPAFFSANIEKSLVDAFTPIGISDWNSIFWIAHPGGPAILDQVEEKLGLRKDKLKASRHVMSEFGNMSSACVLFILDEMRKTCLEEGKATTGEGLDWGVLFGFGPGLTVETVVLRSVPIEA

In the case of `CC(C)(COP(=O)(O)OP(=O)(O)OC[C@H]1O[C@@H](n2cnc3c(N)ncnc32)[C@H](O)[C@@H]1OP(=O)(O)O)[C@@H](O)C(=O)NCCC(=O)NCCSC(=O)c1ccccc1` [Benzoyl-CoA], under setting [1], the “association rate constant (kon)” value worked out at 9510 M⁻¹ s⁻¹ and the “dissociation rate constant (koff)” value stood at 0.0267 s⁻¹. In addition, the Kd under setting [2] is 2800 nM.

In turn, `CCCC(=O)SCCNC(=O)CCNC(=O)[C@H](O)C(C)(C)COP(=O)(O)OP(=O)(O)OC[C@H]1O[C@@H](n2cnc3c(N)ncnc32)[C@H](O)[C@@H]1OP(=O)(O)O` [Butyryl-CoA] registered a Kd of 1370 nM. Under setting [1], the “association rate constant (kon)” value amounted to 36100 M⁻¹ s⁻¹ and the “dissociation rate constant (koff)” value amounted to 0.0495 s⁻¹.

For `COc1cc(/C=C/C(=O)SCCNC(=O)CCNC(=O)[C@H](O)C(C)(C)COP(=O)(O)OP(=O)(O)OC[C@H]2O[C@@H](n3cnc4c(N)ncnc43)[C@H](O)[C@@H]2OP(=O)(O)O)ccc1O` [Feruloyl-CoA], under setting [1], the “association rate constant (kon)” value was 1e+08 M⁻¹ s⁻¹ and the “dissociation rate constant (koff)” value was 0.983 s⁻¹. Further, the Kd under setting [3] came out at 9.83 nM.

For the compound `CCCCCC(=O)SCCNC(=O)CCNC(=O)[C@H](O)C(C)(C)COP(=O)(O)OP(=O)(O)OC[C@H]1O[C@@H](n2cnc3c(N)ncnc32)[C@H](O)[C@@H]1OP(=O)(O)O` [Hexanoyl-CoA], under setting [1], the “association rate constant (kon)” value was found to be 963000 M⁻¹ s⁻¹ and the “dissociation rate constant (koff)” value was 0.00703 s⁻¹. Besides, the Kd under setting [3] is 7.3 nM.

For the compound `CC(C)(COP(=O)(O)OP(=O)(O)OC[C@H]1O[C@@H](n2cnc3c(N)ncnc32)[C@H](O)[C@@H]1OP(=O)(O)O)[C@@H](O)C(=O)NCCC(=O)NCCSC(=O)CC(=O)O` [Malonyl-CoA], under setting [1], the “association rate constant (kon)” value turned out to be 78200 M⁻¹ s⁻¹ and the “dissociation rate constant (koff)” value came to 0.0134 s⁻¹. For the same compound, under setting [2], the Kd came to 172 nM.

With `CCCCCCCCCCCCCC(=O)SCCNC(=O)CCNC(=O)[C@H](O)C(C)(C)COP(=O)(O)OP(=O)(O)OC[C@H]1O[C@@H](n2cnc3c(N)ncnc32)[C@H](O)[C@@H]1OP(=O)(O)O` [Myristoyl-CoA], under setting [1], the “association rate constant (kon)” value stood at 13000 M⁻¹ s⁻¹ and the “dissociation rate constant (koff)” value worked out at 0.00404 s⁻¹.

`CNc1ccccc1C(=O)SCCNC(=O)CCNC(=O)[C@H](O)C(C)(C)COP(=O)(O)OP(=O)(O)OC[C@H]1O[C@@H](n2cnc3c(N)ncnc32)[C@H](O)[C@@H]1OP(=O)(O)O` [N-methylanthraniloyl-CoA]: under setting [1], the “association rate constant (kon)” value was 1e+08 M⁻¹ s⁻¹ and the “dissociation rate constant (koff)” value was 0.204 s⁻¹. Further, under setting [3], the Kd was 2.04 nM.

As to `CCCCCCCCCCCCCCCC(=O)SCCNC(=O)CCNC(=O)[C@H](O)C(C)(C)COP(=O)(O)OP(=O)(O)OC[C@H]1O[C@@H](n2cnc3c(N)ncnc32)[C@H](O)[C@@H]1OP(=O)(O)O` [Palmitoyl-CoA], under setting [1], the “association rate constant (kon)” value was determined as 45800 M⁻¹ s⁻¹ and the “dissociation rate constant (koff)” value is 0.00417 s⁻¹. The Kd under setting [2] was 91.1 nM.

As for `COc1cc(/C=C/C(=O)SCCNC(=O)CCNC(=O)[C@H](O)C(C)(C)COP(=O)(O)OP(=O)(O)OC[C@H]2O[C@@H](n3cnc4c(N)ncnc43)[C@H](O)[C@@H]2OP(=O)(O)O)cc(OC)c1O` [Sinapoyl-CoA], under setting [1], the “association rate constant (kon)” value turned out to be 141000 M⁻¹ s⁻¹ and the “dissociation rate constant (koff)” value is 0.0163 s⁻¹. Under setting [2], the Kd was 116 nM.

Turning to `CCCCCCCCCCCCCCCCCC(=O)SCCNC(=O)CCNC(=O)[C@H](O)C(C)(C)COP(=O)(O)OP(=O)(O)OC[C@H]1O[C@@H](n2cnc3c(N)ncnc32)[C@H](O)[C@@H]1OP(=O)(O)O` [Stearoyl-CoA], under setting [1], the “association rate constant (kon)” value turned out to be 11700 M⁻¹ s⁻¹ and the “dissociation rate constant (koff)” value was 0.00193 s⁻¹. In addition, the Kd under setting [2] was determined as 164 nM.

In the case of `CC(C)(COP(=O)(O)OP(=O)(O)OC[C@H]1O[C@@H](n2cnc3c(N)ncnc32)[C@H](O)[C@@H]1OP(=O)(O)O)[C@@H](O)C(=O)NCCC(=O)NCCSC(=O)/C=C/c1ccc(O)cc1` [p-coumaroyl CoA], under setting [1], the “association rate constant (kon)” value was 591000 M⁻¹ s⁻¹ and the “dissociation rate constant (koff)” value was 0.0595 s⁻¹. Also, under setting [2], the Kd was found to be 101 nM.
